Test results from PubChem BioAssay AID192 (DTP/NCI, 2004).
Values joined by “and” are separate entries in the source; they are usually repeats but may differ in a detail not shown here. Equal entries are not always repeated. Toxic doses and inconclusive results are not listed.

Test system: BDF1 mice, B16 melanoma ip, median survival T/C
Assay: NCI In Vivo Anticancer Drug Screen. Data for tumor model B16 Melanoma (intraperitoneal) in B6D2F1 (BDF1) mice
Settings: endpoint: median survival time, higher = longer survival
Outline: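 Compounds were tested in mice carrying transplantable tumors. Survival or tumor size was recorded, and each value is the treated-group measurement (T) divided by that of the vehicle-treated control group (C).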

[1] = dose: 100.0 mg/kg/injection, schedule: Q01DX009 (ip), vehicle: Klucel (hydroxypropylcellulose) (HPC)
[2] = dose: 200.0 mg/kg/injection, schedule: Q01DX009 (ip), vehicle: Klucel (hydroxypropylcellulose) (HPC)
[3] = dose: 400.0 mg/kg/injection, schedule: Q01DX009 (ip), vehicle: Klucel (hydroxypropylcellulose) (HPC)
[4] = dose: 50.0 mg/kg/injection, schedule: Q01DX009 (ip), vehicle: saline
[5] = dose: 12.5 mg/kg/injection, schedule: Q01DX009 (ip), vehicle: Klucel (hydroxypropylcellulose) (HPC)
[6] = dose: 25.0 mg/kg/injection, schedule: Q01DX009 (ip), vehicle: saline with Tween-80
[7] = dose: 50.0 mg/kg/injection, schedule: Q01DX009 (ip), vehicle: saline with Tween-80
[8] = dose: 6.25 mg/kg/injection, schedule: Q01DX009 (ip), vehicle: Klucel (hydroxypropylcellulose) (HPC)
[9] = dose: 25.0 mg/kg/injection, schedule: Q01DX009 (ip), vehicle: Klucel (hydroxypropylcellulose) (HPC)

Question: Which T/C [1] does the source give for `CC(=O)OC1CCC2(C)C(CCC3C4CC=C(C(C)=O)C4(C)CCC32)C1` (configuration not stated) here?
Answer: 86 % of control

Question: What about the T/C [2] of the same compound?
Answer: 98 % of control

Question: What about the T/C [3] of the same compound?
Answer: 90 % of control

Question: `Cc1ccc(Nc2c3ccccc3nc3ccccc23)cc1` was tested. Which T/C (dose: 18.0 mg/kg/injection, schedule: Q01DX009 (ip), vehicle: saline with Tween-80) did it give?
Answer: 123 % of control

Question: What about the T/C (dose: 18.0 mg/kg/injection, schedule: Q04DX003 (ip), vehicle: saline with Tween-80) of the same compound?
Answer: 105 % of control

Question: What about the T/C (dose: 37.5 mg/kg/injection, schedule: Q04DX003 (ip), vehicle: saline with Tween-80) of the same compound?
Answer: 110 % of control

Question: What about the T/C (dose: 75.0 mg/kg/injection, schedule: Q04DX003 (ip), vehicle: saline with Tween-80) of the same compound?
Answer: 105 % of control

Question: Which results are given for `CCCCCOC(CN)C(Cl)(Cl)Cl` (configuration not stated)?
Answer: T/C (dose: 12.5 mg/kg/injection, schedule: Q01DX009 (ip), vehicle: saline): 93 % of control; T/C (dose: 25.0 mg/kg/injection, schedule: Q01DX009 (ip), vehicle: saline): 100 % of control; T/C [4]: 102 % of control

Question: How did the T/C (dose: 0.39 mg/kg/injection, schedule: Q01DX009 (ip), vehicle: saline) turn out when `COc1ccc(/C=N/n2c3ccccc3c3ccccc32)cc1OCCCN(C)C` was run?
Answer: 120 % of control

Question: And the T/C (dose: 0.78 mg/kg/injection, schedule: Q01DX009 (ip), vehicle: saline)?
Answer: 102 % of control

Question: And the T/C (dose: 1.56 mg/kg/injection, schedule: Q01DX009 (ip), vehicle: saline)?
Answer: 112 % of control

Question: What about the T/C (dose: 3.12 mg/kg/injection, schedule: Q01DX009 (ip), vehicle: saline) of the same compound?
Answer: 105 % of control

Question: And the T/C (dose: 6.25 mg/kg/injection, schedule: Q01DX009 (ip), vehicle: saline)?
Answer: 105 % of control

Question: What about the T/C [5] of the same compound?
Answer: 97 % of control

Question: Which T/C [1] does the source give for `CCOc1ccc(/C=N\N=C\c2ccc(OCC)cc2)cc1` here?
Answer: 95 % of control

Question: And the T/C [2]?
Answer: 90 % of control and 110 % of control

Question: `CC(=O)OC1C(OC(C)=O)C2C(C)CC3OC(=O)C(C)C3CC2(C)C1OC(C)=O` (configuration not stated) was tested. Which T/C [6] did it give?
Answer: 111 % of control

Question: What about the T/C [7] of the same compound?
Answer: 110 % of control

Question: And the T/C (dose: 100.0 mg/kg/injection, schedule: Q01DX009 (ip), vehicle: saline with Tween-80)?
Answer: 106 % of control

Question: Which results are given for `Cc1ncc(CO)c(CO)c1O`?
Answer: T/C [4]: 100 % of control; T/C (dose: 50.0 mg/kg/injection, schedule: Q08HX018 (ip), vehicle: saline): 101 % of control; T/C (dose: 100.0 mg/kg/injection, schedule: Q01DX009 (ip), vehicle: saline): 100 % of control; T/C (dose: 100.0 mg/kg/injection, schedule: Q08HX018 (ip), vehicle: saline): 99 % of control; T/C (dose: 200.0 mg/kg/injection, schedule: Q01DX009 (ip), vehicle: saline): 100 % of control; T/C (dose: 200.0 mg/kg/injection, schedule: Q08HX018 (ip), vehicle: saline): 95 % of control; T/C (dose: 400.0 mg/kg/injection, schedule: Q01DX009 (ip), vehicle: saline): 91 % of control; T/C (dose: 400.0 mg/kg/injection, schedule: Q08HX018 (ip), vehicle: saline): 92 % of control; T/C (dose: 800.0 mg/kg/injection, schedule: Q01DX009 (ip), vehicle: saline): 87 % of control; T/C (dose: 800.0 mg/kg/injection, schedule: Q08HX018 (ip), vehicle: saline): 89 % of control

Question: With `CCCCCCCCC(=O)CCCCCC` as the compound, how does the T/C [1] read?
Answer: 100 % of control

Question: And the T/C [2]?
Answer: 96 % of control

Question: What about the T/C [3] of the same compound?
Answer: 104 % of control

Question: Which T/C [8] does the source give for `CCCCCCC(=O)NC1=C(N2CC2)C(=O)C(NC(=O)CCCCCC)=C(N2CC2)C1=O` here?
Answer: 110 % of control

Question: What about the T/C [5] of the same compound?
Answer: 115 % of control and 120 % of control

Question: And the T/C [9]?
Answer: 100 % of control

Question: What does the source list for `CC(=O)N1CCC2(CC1)SSC1(CCN(C(C)=O)CC1)S2`?
Answer: T/C (dose: 5.0 mg/kg/injection, schedule: Q01DX009 (ip), vehicle: saline with Tween-80): 105 % of control; T/C (dose: 10.0 mg/kg/injection, schedule: Q01DX009 (ip), vehicle: saline with Tween-80): 112 % of control

Question: `COC1=CC(=O)C(OC)=C(OC)C1=O` was tested. Which T/C (dose: 3.12 mg/kg/injection, schedule: Q01DX009 (ip), vehicle: saline with Tween-80) did it give?
Answer: 98 % of control

Question: And the T/C (dose: 6.25 mg/kg/injection, schedule: Q01DX009 (ip), vehicle: saline with Tween-80)?
Answer: 98 % of control

Question: What about the T/C (dose: 12.5 mg/kg/injection, schedule: Q01DX009 (ip), vehicle: saline with Tween-80) of the same compound?
Answer: 100 % of control

Question: What about the T/C [6] of the same compound?
Answer: 101 % of control

Question: And the T/C [7]?
Answer: 93 % of control

Question: What does the source list for `O=C1NC(=O)C2(CCc3ccc(N(CCCl)CCCl)cc32)N1` (configuration not stated)?
Answer: T/C (dose: 1.5 mg/kg/injection, schedule: Q01DX009 (ip), vehicle: saline with Tween-80): 120 % of control; T/C (dose: 3.0 mg/kg/injection, schedule: Q01DX009 (ip), vehicle: saline with Tween-80): 116 % of control; T/C (dose: 12.0 mg/kg/injection, schedule: Q01DX009 (ip), vehicle: saline with Tween-80): 183 % of control; T/C (dose: 12.5 mg/kg/injection, schedule: Q01DX004 (oral), vehicle: saline with Tween-80): 102 % of control

Question: For `CCCCCCCCCCCC(=O)NC1CC(O[C@H]2C[C@](O)(C(=O)CO)Cc3c(O)c4c(c(O)c32)C(=O)c2c(OC)cccc2C4=O)OC(C)C1O` (some centres not stated), which T/C (dose: 12.5 mg/kg/injection, schedule: Q01DX001 (ip), vehicle: distilled water + Tween-80) is on record?
Answer: 119 % of control

Question: What about the T/C (dose: 12.5 mg/kg/injection, schedule: Q01DX001 (ip), vehicle: water) of the same compound?
Answer: 195 % of control

Question: What about the T/C (dose: 25.0 mg/kg/injection, schedule: Q01DX001 (ip), vehicle: distilled water + Tween-80) of the same compound?
Answer: 189 % of control

Question: What about the T/C (dose: 25.0 mg/kg/injection, schedule: Q01DX001 (ip), vehicle: water) of the same compound?
Answer: 233 % of control

Question: And the T/C (dose: 50.0 mg/kg/injection, schedule: Q01DX001 (ip), vehicle: distilled water + Tween-80)?
Answer: 195 % of control

Question: What about the T/C (dose: 50.0 mg/kg/injection, schedule: Q01DX001 (ip), vehicle: water) of the same compound?
Answer: 257 % of control

Question: And the T/C (dose: 100.0 mg/kg/injection, schedule: Q01DX001 (ip), vehicle: distilled water + Tween-80)?
Answer: 258 % of control

Question: What about the T/C (dose: 100.0 mg/kg/injection, schedule: Q01DX001 (ip), vehicle: water) of the same compound?
Answer: 325 % of control

Question: And the T/C (dose: 200.0 mg/kg/injection, schedule: Q01DX001 (ip), vehicle: distilled water + Tween-80)?
Answer: 215 % of control

Question: What about the T/C (dose: 200.0 mg/kg/injection, schedule: Q01DX001 (ip), vehicle: water) of the same compound?
Answer: 104 % of control

Question: What about the T/C (dose: 400.0 mg/kg/injection, schedule: Q01DX001 (ip), vehicle: distilled water + Tween-80) of the same compound?
Answer: 231 % of control

Question: What about the T/C (dose: 400.0 mg/kg/injection, schedule: Q01DX001 (ip), vehicle: water) of the same compound?
Answer: 102 % of control

Question: Which results are given for `O=C(Oc1ccc(Cl)cc1Cl)c1ccc([N+](=O)[O-])cc1`?
Answer: T/C [9]: 87 % of control; T/C [1]: 86 % of control

Question: `CCCCCCCCCCCCCCCC[N+]1(CC)CCCC1` was tested. Which T/C (dose: 0.1 mg/kg/injection, schedule: Q01DX009 (ip), vehicle: Klucel (hydroxypropylcellulose) (HPC)) did it give?
Answer: 102 % of control

Question: And the T/C (dose: 0.2 mg/kg/injection, schedule: Q01DX009 (ip), vehicle: Klucel (hydroxypropylcellulose) (HPC))?
Answer: 95 % of control

Question: With `Cn1c(N)c(N=O)c(=O)n(C)c1=O` as the compound, how does the T/C (dose: 90.0 mg/kg/injection, schedule: Q01DX009 (ip), vehicle: saline with Tween-80) read?
Answer: 100 % of control

Question: What about the T/C (dose: 180.0 mg/kg/injection, schedule: Q01DX009 (ip), vehicle: saline with Tween-80) of the same compound?
Answer: 90 % of control

Question: What about the T/C (dose: 360.0 mg/kg/injection, schedule: Q01DX009 (ip), vehicle: saline with Tween-80) of the same compound?
Answer: 100 % of control

Question: With `COC(=O)C1Oc2ccc(Cl)cc2Cc2cc(Cl)ccc2O1` as the compound, how does the T/C (dose: 2.5 mg/kg/injection, schedule: Q01DX009 (ip), vehicle: Klucel (hydroxypropylcellulose) (HPC)) read?
Answer: 91 % of control

Question: And the T/C (dose: 5.0 mg/kg/injection, schedule: Q01DX009 (ip), vehicle: Klucel (hydroxypropylcellulose) (HPC))?
Answer: 99 % of control

Question: And the T/C (dose: 10.0 mg/kg/injection, schedule: Q01DX009 (ip), vehicle: Klucel (hydroxypropylcellulose) (HPC))?
Answer: 93 % of control and 99 % of control

Question: Which results are given for `CC(CC(C)O)=NCCN=C(C)CC(C)O.[Ni]` (configuration not stated)?
Answer: T/C (dose: 1.5 mg/kg/injection, schedule: Q04DX003 (ip), vehicle: saline with Tween-80): 108 % of control; T/C (dose: 2.0 mg/kg/injection, schedule: Q04DX003 (ip), vehicle: saline with Tween-80): 100 % of control; T/C (dose: 3.0 mg/kg/injection, schedule: Q04DX003 (ip), vehicle: saline with Tween-80): 94 % of control; T/C (dose: 4.5 mg/kg/injection, schedule: Q04DX003 (ip), vehicle: saline with Tween-80): 86 % of control

Question: Which results are given for `O=NO.O=N[O-].O=N[O-].[Co+3].[NH2-].[NH2-].[NH2-].[NH2-]`?
Answer: T/C [8]: 88 % of control; T/C [5]: 91 % of control; T/C [9]: 92 % of control and 101 % of control

Question: Which results are given for `CC1NC(=O)C2Cc3ccc(O)c(c3)Oc3ccc(cc3)C(O)C(C(=O)N2C)N(C)C(=O)C(C)NC(=O)C(Cc2ccc(O)cc2)N(C)C(=O)C(C)NC1=O` (configuration not stated)?
Answer: T/C (dose: 1.0 mg/kg/injection, schedule: Q01DX009 (ip), vehicle: saline with Tween-80): 97 % of control; T/C (dose: 2.0 mg/kg/injection, schedule: Q01DX009 (ip), vehicle: saline with Tween-80): 91 % of control; T/C (dose: 4.0 mg/kg/injection, schedule: Q01DX009 (ip), vehicle: saline with Tween-80): 99 % of control; T/C (dose: 8.0 mg/kg/injection, schedule: Q01DX009 (ip), vehicle: saline with Tween-80): 96 % of control; T/C (dose: 16.0 mg/kg/injection, schedule: Q01DX009 (ip), vehicle: saline with Tween-80): 94 % of control
